# Target: T1, PPARδ (Homo sapiens, UniProt Q03181)
# T1 construct: fused to amino acids 147-441 of PPARδ downstream of CMV promoter; expressed in transfected cells; host or cells: HEK293 cells, transiently transfected with pFACMV-PPARδ using Fugene
# T1 sequence (Q03181 147-441): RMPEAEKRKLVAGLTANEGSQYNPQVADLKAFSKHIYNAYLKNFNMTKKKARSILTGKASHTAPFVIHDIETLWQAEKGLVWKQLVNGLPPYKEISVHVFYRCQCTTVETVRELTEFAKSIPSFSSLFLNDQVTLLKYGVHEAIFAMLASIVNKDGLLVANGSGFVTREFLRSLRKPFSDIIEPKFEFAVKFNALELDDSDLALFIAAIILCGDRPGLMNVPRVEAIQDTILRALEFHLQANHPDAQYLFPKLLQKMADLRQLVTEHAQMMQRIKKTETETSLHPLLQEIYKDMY
# Experiment: Transactivation assay (PPARδ GAL4 assay) in transiently transfected HEK293 cells
# Assay type: cell-based
# Settings: luciferase reporter, Table 1
# Experimental: Compounds were screened for their functional potency in transiently transfected HEK293 cells for their ability to activate PPAR subtypes. Cells were cultured in DMEM (Invitrogen) supplemented with 10% foetal calf serum, glutamine, penicillin and streptomycin and plated at 10 000 cells/well of a 96-well solid white plate and incubated at 37° C./5% CO2 for 24 hours. Media was removed and the cells washed with PBS. Cells were then transiently transfected using Fugene (Roche) with 50 ng pFACMV-PPARδ (plasmid encoding amino acids 1-147 of the GAL4 DNA binding domain, fused to amino acids 147-441 of PPARδ downstream of CMV promoter) and 250 ng pFR-Luc (reporter plasmid containing 5×GAL4 response elements upstream of a luciferase gene), using a ratio of 3:1 Fugene:DNA. 100 μl of this transfection mixture in DMEM (without foetal calf serum) was added to each well, and the incubation continued for a further 24 hours. The cells are then again washed with PBS prior to the addition of 100 μl reduced serum medium (OptiMEM; Invitrogen). Compounds were added (10 μl in 2% DMSO in OptiMEM) to achieve final concentrations between 0-30 μM. The cells were then returned to the incubator for a further 24 hours. 100 μl of luciferase reagent (Bright Glo, Promega) was added directly to each well, and the luminescence determined using a suitable luminometer.
# To measure the selectivity of compounds, their ability to transactivate GAL4 fusions of PPARα LBD and PPARγ LBD was determined. The activity of compounds was expressed as a percentage relative to control compounds: PPARγ rosiglitazone (BRL 49653), PPARδ GW501516 (11) or PPARα KCL1999000269 (12). EC50 values were calculated by fitting of the data to a sigmoidal dose response curve.
row,SMILES,EC50
1,"CCc1cc(C(=O)c2ccc(Cl)c(Cl)c2)c(NC(=O)CSC(C)(C)C(=O)O)s1 [Example 29, 2-{[3-(3,4-Dichloro-benzoyl)-5-ethyl-thiophen-2-ylcarbamoyl]-methylsulfanyl}-2-methyl-propionic acid]",< 100 nM
2,"CCc1cc(C(=O)c2ccc(Cl)c(Cl)c2)c(NC(=O)CC(C)(C)CC(=O)O)s1 [Example 30, 4-[3-(3,4-Dichloro-benzoyl)-5-ethyl-thiophen-2-ylcarbamoyl]-3,3-dimethyl-butyric acid]",1000 to 30000 nM
3,"CCc1cc(C(=O)c2ccc(F)c(Cl)c2)c(NC(=O)CSCC(=O)O)s1 [Example 31, {[3-(3-Chloro-4-fluoro-benzoyl)-5-ethyl-thiophen-2-ylcarbamoyl]-methylsulfanyl}-acetic acid]",100 to 1000 nM
4,"CCc1cc(C(=O)c2ccc(F)c(Cl)c2)c(NC(=O)CC(C)(C)CC(=O)O)s1 [Example 32, 4-[3-(3-Chloro-4-fluoro-benzoyl)-5-ethyl-thiophen-2-ylcarbamoyl]-3,3-dimethyl-butyric acid]",1000 to 30000 nM
5,"CCc1cc(C(=O)c2ccc(OC(C)C)cc2)c(NC(=O)CSCC(=O)O)s1 [Example 33, {[5-Ethyl-3-(4-isopropoxy-benzoyl)-thiophen-2-ylcarbamoyl]-methylsulfanyl}-acetic acid]",100 to 1000 nM
6,"CCc1cc(C(=O)c2cccc(Br)c2)c(NC(=O)CSCC(=O)O)s1 [Example 34, {[3-(3-Bromo-benzoyl)-5-ethyl-thiophen-2-ylcarbamoyl]-methylsulfanyl}-acetic acid]",100 to 1000 nM
7,"CCc1cc(C(=O)c2ccc(C#N)cc2)c(NC(=O)CSCC(=O)O)s1 [Example 35, {[3-(4-Cyano-benzoyl)-5-ethyl-thiophen-2-ylcarbamoyl]-methylsulfanyl}-acetic acid]",1000 to 30000 nM
8,"CCc1cc(C(=O)c2cccc(-c3ccc(OC(F)(F)F)cc3)c2)c(NC(=O)CSCC(=O)O)s1 [Example 44, {[5-Ethyl-3-(4′-trifluoromethoxy-biphenyl-3-carbonyl)-thiophen-2-ylcarbamoyl]-methylsulfanyl}-acetic acid]",100 to 1000 nM
9,"CCc1cc(C(=O)c2ccc(C(F)(F)F)cc2)c(NC(=O)CSCC(=O)O)s1 [Example 45, {[5-Ethyl-3-(4-trifluoromethylbenzoyl)-thiophen-2-ylcarbamoyl]-methylsulfanyl}-acetic acid]",< 100 nM
10,"CCc1cc(C(=O)c2cccc3ccccc23)c(NC(=O)CSCC(=O)O)s1 [Example 46, {[5-Ethyl-3-(naphthalene-1-carbonyl)-thiophen-2-ylcarbamoyl]-methylsulfanyl}-acetic acid]",1000 to 30000 nM
11,"CCc1cc(C(=O)c2cccc(OC)c2)c(NC(=O)CSCC(=O)O)s1 [Example 48, {[5-Ethyl-3-(3-methoxybenzoyl)-thiophen-2-ylcarbamoyl]-methylsulfanyl}-acetic acid]",1000 to 30000 nM
12,"CCc1cc(C(=O)c2ccc(OC)c(OC)c2)c(NC(=O)CSCC(=O)O)s1 [Example 49, {[3-(3,4-Dimethoxybenzoyl)-5-ethyl-thiophen-2-ylcarbamoyl]-methylsulfanyl}-acetic acid]",1000 to 30000 nM
13,"CCc1cc(C(=O)c2ccc(C(C)(C)C)cc2)c(NC(=O)CSCC(=O)O)s1 [Example 50, {[3-(4-tert-Butyl-benzoyl)-5-ethyl-thiophen-2-ylcarbamoyl]-methylsulfanyl}-acetic acid]",1000 to 30000 nM
14,"CCc1cc(C(=O)c2ccc(C)c(C)c2)c(NC(=O)CSCC(=O)O)s1 [Example 51, {[3-(3,4-Dimethyl-benzoyl)-5-ethyl-thiophen-2-ylcarbamoyl]-methylsulfanyl}-acetic acid]",1000 to 30000 nM
15,"CCc1cc(C(=O)c2ccc(C)c(C)c2)c(NC(=O)CC(C)(C)CC(=O)O)s1 [Example 52, 4-[3-(3,4-Dimethyl-benzoyl)-5-ethyl-thiophen-2-ylcarbamoyl]-3,3-dimethyl-butyric acid]",1000 to 30000 nM
16,"CCc1cc(C(=O)c2ccc(C)c(C)c2)c(NC(=O)CC2(CC(=O)O)CCCC2)s1 [Example 53, (1-{[3-(3,4-Dimethyl-benzoyl)-5-ethyl-thiophen-2-ylcarbamoyl]-methyl}-cyclopentyl)-acetic acid]",1000 to 30000 nM
17,"CCc1cc(C(=O)c2ccc(C)c(C)c2)c(NC(=O)CSC(C)(C)C(=O)O)s1 [Example 54, 2-{[3-(3,4-Dimethyl-benzoyl)-5-ethyl-thiophen-2-ylcarbamoyl]-methylsulfanyl}-2-methyl-propionic acid]",100 to 1000 nM
18,"CCc1cc(C(=O)c2ccc(OC)nc2)c(NC(=O)CSCC(=O)O)s1 [Example 55, {[5-Ethyl-3-(6-methoxy-pyridine-3-carbonyl)-thiophen-2-ylcarbamoyl]-methylsulfanyl}-acetic acid]",1000 to 30000 nM
19,"CCc1cc(C(=O)c2ccc(OC)nc2)c(NC(=O)CC2(CC(=O)O)CCCC2)s1 [Example 56, (1-{[5-Ethyl-3-(6-methoxy-pyridine-3-carbonyl)-thiophen-2-ylcarbamoyl]-methyl}-cyclopentyl)-acetic acid]",1000 to 30000 nM
20,"CCc1cc(C(=O)c2ccc(C(F)(F)F)nc2)c(NC(=O)CSCC(=O)O)s1 [Example 57, {[5-Ethyl-3-(6-trifluoromethyl-pyridine-3-carbonyl)-thiophen-2-ylcarbamoyl]-methylsulfanyl}-acetic acid]",1000 to 30000 nM
21,"CCc1cc(C(=O)c2ccc(OC(C)C)nc2)c(NC(=O)CSCC(=O)O)s1 [Example 58, {[5-Ethyl-3-(6-isopropoxy-pyridine-3-carbonyl)-thiophen-2-ylcarbamoyl]-methylsulfanyl}-acetic acid]",100 to 1000 nM
22,"CCc1cc(C(=O)c2cnc(OC(C)C)c(Cl)c2)c(NC(=O)CSCC(=O)O)s1 [Example 59, {[3-(5-Chloro-6-isopropoxy-pyridine-3-carbonyl)-5-ethyl-thiophen-2-ylcarbamoyl]-methylsulfanyl}-acetic acid]",100 to 1000 nM

# More lines, now with the values ahead:
row,EC50,SMILES
1,< 100 nM,"CCc1cc(C(=O)c2ccc(-c3ccccc3)cc2)c(NC(=O)CSCC(=O)O)s1 [Example 36, {[3-(Biphenyl-4-carbonyl)-5-ethyl-thiophen-2-ylcarbamoyl]-methylsulfanyl}-acetic acid]"
2,100 to 1000 nM,"CCc1cc(C(=O)c2ccc(-c3ccccc3)cc2)c(NC(=O)CC(C)(C)CC(=O)O)s1 [Example 37, 4-[3-(Biphenyl-4-carbonyl)-5-ethyl-thiophen-2-ylcarbamoyl]-3,3-dimethyl-butyric acid]"
3,< 100 nM,"CCc1cc(C(=O)c2ccc(-c3ccc(C(F)(F)F)cc3)cc2)c(NC(=O)CSCC(=O)O)s1 [Example 38, {[5-Ethyl-3-(4′-trifluoromethyl-biphenyl-4-carbonyl)-thiophen-2-ylcarbamoyl]-methylsulfanyl}-acetic acid]"
4,< 100 nM,"CCc1cc(C(=O)c2ccc(-c3ccc(OC(F)(F)F)cc3)cc2)c(NC(=O)CSCC(=O)O)s1 [Example 39, {[5-Ethyl-3-(4′-trifluoromethoxy-biphenyl-4-carbonyl)-thiophen-2-ylcarbamoyl]-methylsulfanyl}-acetic acid]"
5,< 100 nM,"CCc1cc(C(=O)c2ccc(-c3ccc(F)cc3)cc2)c(NC(=O)CSCC(=O)O)s1 [Example 40, {[5-Ethyl-3-(4′-fluoro-biphenyl-4-carbonyl)-thiophen-2-ylcarbamoyl]-methylsulfanyl}-acetic acid]"
6,1000 to 30000 nM,"CCc1cc(C(=O)c2ccc(-c3cncnc3)cc2)c(NC(=O)CSCC(=O)O)s1 [Example 41, {[5-Ethyl-3-(4-pyrimidin-5-yl-benzoyl)-thiophen-2-ylcarbamoyl]-methylsulfanyl}-acetic acid]"
7,1000 to 30000 nM,"CCc1cc(C(=O)c2ccc(-c3cnn(C)c3)cc2)c(NC(=O)CSCC(=O)O)s1 [Example 42, ({5-Ethyl-3-[4-(1-methyl-1H-pyrazol-4-yl)-benzoyl]-thiophen-2-ylcarbamoyl}-methylsulfanyl)-acetic acid]"
8,100 to 1000 nM,CCc1cc(C(=O)c2cccc(-c3ccc(F)cc3)c2)c(NC(=O)CSCC(=O)O)s1 [Example 43]
9,100 to 1000 nM,"CCc1cc(C(=O)c2ccc3ccccc3c2)c(NC(=O)CSCC(=O)O)s1 [Example 47, {[5-Ethyl-3-(naphthalene-2-carbonyl)-thiophen-2-ylcarbamoyl]-methylsulfanyl}-acetic acid]"
10,1000 to 30000 nM,"CCc1cc(C(=O)c2ccc(Oc3ccccc3)nc2)c(NC(=O)CSCC(=O)O)s1 [Example 60, {[5-Ethyl-3-(6-phenoxy-pyridine-3-carbonyl)-thiophen-2-ylcarbamoyl]-methylsulfanyl}-acetic acid]"

# Reference: patent US20100063065A1 (Inpharmatica Limited, priority 2005, published 2010)
